Measurements reported in PubChem BioAssay AID1918945 (Molecular Pharmacology Branch, DTP, NCI, 2023).
Where “and” joins values, the source holds several entries; their conditions need not be identical. Equal entries are not always repeated.

Tested on: 883617-216-R-J1-PDC complex spheroid viability
Assay: Anticancer human tumor 883617-216-R-J1-PDC patient-derived bladder carcinoma cell line growth inhibition
Conditions: for viability, T/C: stronger effect = lower value
Text: Multicellular complex tumor spheroid response to LSD1 Inhibitor Iadademstat in combination with a variety of drugs and investigational agents in selected tumor cell lines
The current study was undertaken to assess response to LSD1 inhibitors in combination with standard-of-care drugs and investigational agents in solid tumor complex spheroid models as well as in the K-562 leukemia. Complex spheroids include a stromal component modeled by human endothelial cells (HUVEC) and fibroblasts modeled by human mesenchymal stem cells (MSCs). The concentration ranges selected for each drug and investigational agent were based upon clinically achievable concentrations if the clinical Cmax of the agent was known.
Compounds. The drugs and investigational agents used in this study are listed on Table 1. All of the agents used, including staurosporine (NSC755774) and gemcitabine (NSC613327), were obtained from the Developmental Therapeutics Program, NCI. FDA-approved anticancer drugs are available from the NCI at http://dtp.nci.nih.gov/branches/dscb/oncology_drugset_explanation.html. Drugs and investigational agents were >95% pure by proton nuclear magnetic resonance (NMR) and liquid chromatography/mass spectrometry (LC/MS). Stock solutions were prepared at 400x in DMSO, stored at -70 degrees C, and diluted in fresh medium prior to their use. The final concentration of DMSO in cell culture wells never exceeded 0.25% (v/v). The FDA-approved anticancer drug set is available from the Developmental Therapeutics Program at https://dtp.cancer.gov/organization/dscb/obtaining/available_plates.htm. All drugs and investigational agents were tested over a range starting from a high concentration at or near the clinical Cmax and decreasing in half-log increments. If the clinical Cmax for an agent had not been determined, the highest concentration tested was 10 microM.
Cell Lines. The patient-derived cancer cell (PDC) lines: 292921-168-R-J2-PDC, K24384-001-R-PDC, and 521955-158-R2-J5-PDC pancreatic carcinomas, 556581-035-R-J1 ovarian carcinoma, 324938-238-R-J1-PDC, 855422-203-R-J1-PDC and 883617-216-R-J1-PDC urothelial bladder carcinomas, 743489-274-T-PDC renal cell carcinoma, 138582-R-J1 Merkel cell tumor, K60290-347-R-J1 and K57222-313-R-J1-PDC glioblastomas, 653999-131-R-J2-PDC, LG0703-F948-PDC, and 349418-098-R-PDC non-small cell lung carcinomas, 885512-296-R-J2-PDC, 171881-019-R-J1-PDC breast carcinomas and 186277-243-T-J2-PDC and 233499-124-R-J2-PDC colon carcinomas were obtained from the NCI Patient-Derived Models Repository (PDMR, https://pdmr.cancer.gov). The established cell lines NCI/ADR-RES (RRID:CVCL_14520 and OVCAR-5 (RRID:CVCL_1628) ovarian carcinomas, 786-O (RRID:CVCL_1051) and A498 (RRID:CVCL_A498) renal cell carcinoma, NCI-H211 (ATCC, cat. CRL-5824; RRID:CVCL_1529), NCI-H196 (ATCC, cat. CRL-5823, RRID:CVCL_1509), SW 1271 (ATCC, cat. CRL-2177, RRID:CVCL_1716) and NCI-H1876 (ATCC, cat. CRL-5902, RRID:CVCL_1503) small cell lung carcinomas, MDA-MB-231 (RRID:CVCL_0062) and MDA-MB-468 (RRID:CVCL_0419)breast carcinomas (10-12). Pooled donor human umbilical vein endothelial cells (HUVEC, Lonza, cat. CC-2519) and human mesenchymal stem cells (hMSC, Lonza, cat. PT-2501) were purchased from Lonza (Walkersville, MD).
Cell Culture. All cells were maintained in an incubator at 37 degrees C and 5% CO2 with 95% humidity. The PDC lines were cultured according to standard operating procedures established by the NCI PDMR (https://pdmr.cancer.gov). Briefly all PDCs were thawed and cultured in Matrigel-coated flasks prepared with a working solution of 1X Ham's F-12 nutrient mix, without supplementation (Invitrogen, Waltham, MA, cat. 11765054), 100 U/mL penicillin-streptomycin (Invitrogen, cat. 15140122), and 2.5% Matrigel (Corning Inc., Corning, NY, cat. 354248) for the first three passages. […]
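Also: exposure lasted seven days after three days of spheroid growth.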
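For viability, T/C in this document: 100% = DMSO vehicle control luminescence.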

In the case of `O=C(c1cc(Cc2n[nH]c(=O)c3ccccc23)ccc1F)N1CCN(C(=O)C2CC2)CC1`, the viability, T/C (compound 0.0316 µM) is reported as 90.5% and 78.2%, the viability, T/C (compound 0.1 µM) is reported as 99.3% and 78.3% and the viability, T/C (compound 0.316 µM) is reported as 92.2% and 59.4%. The viability, T/C (compound 1 µM) was 75.5% and 42.5%, the viability, T/C (compound 3.16 µM) was 54.9% and 41.5% and the viability, T/C (compound 10 µM) was 43.3% and 30.9%. The IC50 (curve of compound) was 4910 nM and 633 nM.
For `CC1COCCN1c1cc(C2(S(C)(=N)=O)CC2)nc(-c2ccnc3[nH]ccc23)n1` (configuration not stated) + NC1CCC(NC2CC2c2ccccc2)CC1, the IC50 (curve of first compound, second compound 0.1 µM) was 1050 nM, the IC50 (curve of first compound, second compound 0.316 µM) was 1130 nM and the IC50 (curve of first compound, second compound 1 µM) was 1080 nM. For the same compound, the IC50 (curve of first compound, second compound 3.16 µM) was 1350 nM, the IC50 (curve of first compound, second compound 10 µM) was 1520 nM and the viability, T/C (second compound 0.1 µM, first compound 0.0316 µM) was 106%. The viability, T/C (second compound 0.1 µM, first compound 0.1 µM) was 103%, the viability, T/C (second compound 0.1 µM, first compound 0.316 µM) was 78.9% and the viability, T/C (second compound 0.1 µM, first compound 1 µM) was 50.2%. For the same compound, the viability, T/C (second compound 0.1 µM, first compound 3.16 µM) was 43.9%, the viability, T/C (second compound 0.1 µM, first compound 10 µM) was 36.9% and the viability, T/C (second compound 0.316 µM, first compound 0.0316 µM) was 99.9%. For the same compound, the viability, T/C (second compound 0.316 µM, first compound 0.1 µM) was 101%, the viability, T/C (second compound 0.316 µM, first compound 0.316 µM) was 77.7% and the viability, T/C (second compound 0.316 µM, first compound 1 µM) was 51.8%. It also gave a viability, T/C (second compound 0.316 µM, first compound 3.16 µM) of 39.7%, a viability, T/C (second compound 0.316 µM, first compound 10 µM) of 33% and a viability, T/C (second compound 1 µM, first compound 0.0316 µM) of 101%. The viability, T/C (second compound 1 µM, first compound 0.1 µM) was 101%, the viability, T/C (second compound 1 µM, first compound 0.316 µM) was 70.8% and the viability, T/C (second compound 1 µM, first compound 1 µM) was 53.7%. The viability, T/C (second compound 1 µM, first compound 3.16 µM) was 39%, the viability, T/C (second compound 1 µM, first compound 10 µM) was 34.5% and the viability, T/C (second compound 3.16 µM, first compound 0.0316 µM) was 100%. The viability, T/C (second compound 3.16 µM, first compound 0.1 µM) was 93%, the viability, T/C (second compound 3.16 µM, first compound 0.316 µM) was 75.4% and the viability, T/C (second compound 3.16 µM, first compound 1 µM) was 52.9%. The viability, T/C (second compound 3.16 µM, first compound 3.16 µM) was 40.6%, the viability, T/C (second compound 3.16 µM, first compound 10 µM) was 31.5% and the viability, T/C (second compound 10 µM, first compound 0.0316 µM) was 106%. For the same compound, the viability, T/C (second compound 10 µM, first compound 0.1 µM) was 92.7%, the viability, T/C (second compound 10 µM, first compound 0.316 µM) was 78.8% and the viability, T/C (second compound 10 µM, first compound 1 µM) was 52%. For the same compound, the viability, T/C (second compound 10 µM, first compound 3.16 µM) was 43.8% and the viability, T/C (second compound 10 µM, first compound 10 µM) was 34.9%.
